# Patent publication US9655886B2, “Substituted 2,3,4,5-tetrahydro-1H-pyrido[4,3-b]indoles, methods for use thereof” (priority 2015, dated 2017)
# What was measured:
# BALB/c male mice [1] = assay: Mice Behavior an Elevated Cross Shaped Labyrinth (tranquilizing action); format: in vivo; details: preference index for open sections, number of defecations; FIG. 19-21
# Excerpt: The length of each section in the labyrinth is 30 cm, the width is 5 cm, the height of the walls is 15 cm. Two opposite sections are closed by transparent walls on the sides and on the butt ends, the other two sections are lit and opened. A mouse was placed in the center of the labyrinth and for the next five minutes the number of entries the open and closed sections and the time spent in each type of section was registered. […] The animals usually avoid the open sections (the preference index is between 0.2 and 0.3).
# BALB/c male mice [2] = assay: Passive Avoidance of Mice in a Shuttle Chamber, scopolamine or MK-801 (Example 8); format: in vivo; details: scopolamine 0.3 mg/kg or MK-801 0.1 mg/kg; SB-742457 1 mg/kg; FIGS. 5-10
# Protocol: A shuttle chamber (Ugo Basile, Italy) consisted of two sections was used. […] The sections were connected via a hole which could be shut with a vertical door. The floor was made of transverse metal bars on which DC current impulses could be fed. Experiments were carried out on aged male mice of line BALB/c weighing 20-24 grams.
# On the first day of the experiment 30 minutes before training the mice were injected intraintestinally with physiological solution of scopolamine (0.3 mg/kg) or scopolamine in combination with antagonists of 5-HT6 receptors 1.2.1(2)HCl, 1.2.1(4)HCl or 1.2.1(5)HCl. Each group consisted of at least 8 animals. The animals were placed in the light section, and the latent period of the first entry into the dark chamber was registered. Then the vertical door was closed and the animal was punished by 0.6 mA DC current for 3 seconds. After that the animal was carried back to its living cell. In 22-24 hours the same animal was placed in the light section of the shuttle chamber once again and the latent period before its entry into the dark section, the total time of its stay in the light section and the number of entries into the dark section were registered. Each observation lasted for 5 minutes.
# The experiment was carried out in the same way as in example 7. On the first day 30 minutes before training the mice were injected intra-intestinally with a physiological solution of scopolamine (0.3 mg/kg) or MK-801(0.1 mg/kg).
# BALB/c male mice [3] = assay: Training Mice in the Morris Water labyrinth, scopolamine; format: in vivo; details: scopolamine 0.6 mg/kg; 1.2.1(5)HCl 0.1 mg/kg, 1.2.1(1)HCl 1 mg/kg, tacrine 3 mg/kg; FIG. 11-12
# Protocol: A circular pool of 100 cm diameter and of 30 cm sides was used. It was filled with water at 20-22° C. A circular ceramic platform of 14 cm height was placed in the pool. The behavior of the animals was registered using an automated computer video system in addition with software package of movement analyzer Any-maze (Stoelting Co., US). The experiments were carried out on aged male mice of BALB/c line weighing 20-24 grams. Before the experiments mice fit for learning were selected. This was done by placing the platform 1 cm above the water level and putting an animal on the platform for 20 seconds. Then the mouse was put in the water on the opposite side of the pool and allowed to find the platform and climb onto it for 60 seconds, where it was left for additional 20 seconds. After that the mouse was repeatedly immersed in the water on the opposite side of the pool and allowed to search for the platform. If it failed in finding the platform within 60 seconds the experimentator helped it to find the platform and climb onto it. If the mice couldn't find the platform itself in two consecutive attempts it was excluded from the experiment.
# During the next two days the platform was placed 0.5 centimeters lower the water level. Every day the mice were given four attempts for finding the platform within 60 seconds. The time interval between the attempts was 20 seconds, during which the mice stayed on the platform. Every day before the first attempt the mice was placed on the platform for 20 seconds. The time needed for finding and climbing the platform was registered. The animals were sunk in water in two different places on the side of the pool opposite to the platform.
# The animals of the control group were injected with physiological solution. At least 8 animals were used in each group.
# On the third day the platform was removed and each animal was placed in the pool once for a period of 60 seconds. The time each mouse spent in the area where the platform had been located during the previous days was registered. […]
# SHK male mice = assay: Recognition of New Objects by Mice Under Scopolamine and MK-801; format: in vivo; details: scopolamine 1 mg/kg and MK-801 0.2 mg/kg; FIG. 13-14
# Protocol: The experiments were carried out in a closed cross shaped labyrinth which consisted of 4 peripheral sections connected with the central chamber via a 7×7 cm hole. The labyrinth was made of black plastic and its sections were of 14×14×14 cm size. The top cover of the labyrinth was transparent.
# A mouse was placed in the central section of the labyrinth and allowed to investigate the environment. A mouse was considered to have entered a section once all of its four paws were inside the chamber. A test was considered to be completed when the mouse had moved 12 times between the sections, having made a total of 13 visits. The floor of the labyrinth was cleaned after each animal.
# With each mouse the test was carried out twice with 1 hour interval.
# During the first test, each section of the labyrinth contained a circular plastic cup of 3 cm height and 7 cm diameter. During the second test the cover in each of the two opposing sections was replaced by a conical glass bulb of 7 cm height and 4 cm across the bottom. The time that the mice spent in each section of the labyrinth was registered and the index of new object recognition was calculated as the ratio of the time spent in the sections with the bulbs to the time spent in all sections of the labyrinth. If no preference is given to the sections with new objects the index is 0.5.
# When new objects appear the mice spend more time in the section containing them that results in an increased recognition index. Scopolamine (1 mg/kg) and MK-801 (0.2 mg/kg) disturbed learning (memory) that leads to lowering of the recognition index.
# BALB/c male mice [4] = assay: Passive Avoidance of Mice in a Shuttle Chamber, memory disturbed by scopolamine (Example 7); format: in vivo; details: scopolamine 0.3 mg/kg, injected 30 minutes before training; FIGS. 2-4
# Protocol: A shuttle chamber (Ugo Basile, Italy) consisted of two sections was used. […] The sections were connected via a hole which could be shut with a vertical door. The floor was made of transverse metal bars on which DC current impulses could be fed. Experiments were carried out on aged male mice of line BALB/c weighing 20-24 grams. On the first day of the experiment 30 minutes before training the mice were injected intraintestinally with physiological solution of scopolamine (0.3 mg/kg) or scopolamine in combination with antagonists of 5-HT6 receptors 1.2.1(2)HCl, 1.2.1(4)HCl or 1.2.1(5)HCl. Each group consisted of at least 8 animals. The animals were placed in the light section, and the latent period of the first entry into the dark chamber was registered. Then the vertical door was closed and the animal was punished by 0.6 mA DC current for 3 seconds. After that the animal was carried back to its living cell. In 22-24 hours the same animal was placed in the light section of the shuttle chamber once again and the latent period before its entry into the dark section, the total time of its stay in the light section and the number of entries into the dark section were registered. Each observation lasted for 5 minutes. The experiment was carried out during the day time in an isolated laboratory using white noise at a level of about 70 decibel above the human hearing threshold. Scopolamine causes the disturbance of training (memory loss) which results in […]. The fact that 5-HT6 receptor antagonists can improve the learning ability that has been disturbed by scopolamine is regarded as evidence for their nootropic effect.
# 5-HT6 receptor = molecular target: T1, 5-HT6 receptor (Homo sapiens, UniProt P50406); assay: Inhibition of serotonine stimulated intracellular cAMP in HEK 293 cells with expressed 5-HT6 receptor (LANCE cAMP); format: cell-based; details: HEK 293 cells with artificially expressed 5-HT6 receptor; reduction of cAMP induced by serotonine
# T1 construct: expressed in transfected cells; host or cells: HEK 293
# T1 sequence (P50406 whole entry): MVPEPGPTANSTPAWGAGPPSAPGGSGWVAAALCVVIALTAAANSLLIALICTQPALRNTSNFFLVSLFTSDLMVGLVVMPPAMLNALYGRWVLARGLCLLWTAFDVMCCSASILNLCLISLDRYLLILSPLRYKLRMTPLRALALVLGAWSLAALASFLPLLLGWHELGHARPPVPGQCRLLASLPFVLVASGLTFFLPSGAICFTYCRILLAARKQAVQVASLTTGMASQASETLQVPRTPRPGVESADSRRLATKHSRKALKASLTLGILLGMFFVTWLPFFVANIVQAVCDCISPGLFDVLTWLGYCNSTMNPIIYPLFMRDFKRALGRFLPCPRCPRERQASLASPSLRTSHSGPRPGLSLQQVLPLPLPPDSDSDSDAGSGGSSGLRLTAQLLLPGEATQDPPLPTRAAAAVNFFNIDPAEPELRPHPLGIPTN
# Protocol: The concentration of intracellular cAMP was determined using a LANCE cAMP reagent (PerkinElmer) by the method described by the manufacturer: [http://las.perkinelmer.com/content/Manuals/MAN_LANCEcAMP384KitUser.pdf].
SMILES,"tranquilizing action, elevated cross shaped labyrinth (BALB/c male mice [1])","nootropic action, passive avoidance (BALB/c male mice [2])","improvement of mice's training, Morris water labyrinth (BALB/c male mice [3])","nootropic action, new object recognition (SHK male mice)","nootropic action (memory enhancement disturbed by scopolamine), passive avoidance (BALB/c male mice [4])",further results
O=C1CC2(CCCC2)CC(=O)N1CCCCN1CCN(c2ncccn2)CC1 [Buspiron],tranquilizing action,–,–,–,–,–
"Cc1ccc2c(c1)c1c(n2CCc2ccccc2)CCN(C)C1.Cl [1.2.1(1)HCl, 2,8-dimethyl-5-(2-phenylethyl)-2,3,4,5-tetrahydro-1H-pyrido[4,3-b]indole hydrochloride]","tranquilizing action, which is the most prominent",highest activity,statistically significant improvement of mice's training,"nootropic action, the level of which is the most prominent",–,–
Nc1c2c(nc3ccccc13)CCCC2 [tacrine],–,–,statistically significant improvement of mice's training,–,–,–
"Cc1ccc2c(c1)c1c(n2CCc2ccc(C)nc2)CCN(C)C1.Cl [1.2.1(5)HCl, 2,8-dimethyl-5-[2-(6-methylpyridin-3-yl)ethyl]-2,3,4,5-tetrahydro-1H-pyrido[4,3-b]indole hydrochloride]",tranquilizing action,nootropic action,statistically significant improvement of mice's training,nootropic action,nootropic action,–
"Cc1ccc2c(c1)c1c(n2CCc2ccncc2)CCN(C)C1.Cl [1.2.1(2)HCl, 2,8-dimethyl-5-[2-(pyridin-4-yl)ethyl]-2,3,4,5-tetrahydro-1H-pyrido[4,3-b]indole hydrochloride]",–,–,–,–,nootropic action which is the most prominent,–
O=S(=O)(c1ccccc1)c1cnc2c(N3CCNCC3)cccc2c1 [SB-742457],–,inactive,–,nootropic action,–,–
"Cc1ccc2c(c1)c1c(n2CCc2ccccn2)CCN(C)C1.Cl [1.2.1(4)HCl, 2,8-dimethyl-5-[2-(pyridin-2-yl)ethyl]-2,3,4,5-tetrahydro-1H-pyrido[4,3-b]indole hydrochloride]",–,–,–,–,nootropic action which is the most prominent,–
"CN1CCc2c(c3ccccc3n2C#Cc2ccccc2)C1 [1.3(1), 2-methyl-5-phenylethynyl-2,3,4,5-tetrahydro-1H-pyrido[4,3-b]indole]",–,–,–,–,–,IC50 (5-HT6 receptor): 4.09 µM
CC12CC3CC(C)(C1)CC(N)(C3)C2 [memantine],–,–,–,nootropic action,–,–
